Data taken from the supplement of paper PMC11451515.

Test system: NOMO1
Test: cell viability relative to DMSO control; higher = less cytotoxic
Conditions: 48 h
Summary of the method: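 Before seeding, each leukemia line was adapted for at least four passages in each medium. NOMO1 or SEM cells (500 cells/well) and P12-Ichikawa cells (1000 cells/well) went into 1536-well plates at 5 μl, then received library compounds in DMSO by pin dosing across 11 threefold concentrations, 47 μM to 0.79 nM. Readout was CellTiter-Glo One luminescence after 48 h at 37°C, and viability is given as a per-plate percentage of DMSO wells, with cell-free wells as background.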

[1] = HPLM + 10% dialyzed FBS, 0.000781 µM
[2] = HPLM + 10% dialyzed FBS, 0.00234 µM
[3] = HPLM + 10% dialyzed FBS, 0.00702 µM
[4] = HPLM + 10% dialyzed FBS, 0.0211 µM
[5] = HPLM + 10% dialyzed FBS, 0.0632 µM
[6] = HPLM + 10% dialyzed FBS, 0.19 µM
[7] = HPLM + 10% dialyzed FBS, 0.569 µM
[8] = HPLM + 10% dialyzed FBS, 1.71 µM
[9] = HPLM + 10% dialyzed FBS, 5.12 µM
[10] = HPLM + 10% dialyzed FBS, 15.4 µM
[11] = HPLM + 10% dialyzed FBS, 46.1 µM
[12] = RPMI 5 mM glucose + 10% FBS, 0.000781 µM
[13] = RPMI 5 mM glucose + 10% FBS, 0.00234 µM
[14] = RPMI 5 mM glucose + 10% FBS, 0.00702 µM
[15] = RPMI 5 mM glucose + 10% FBS, 0.0211 µM
[16] = RPMI 5 mM glucose + 10% FBS, 0.0632 µM
[17] = RPMI 5 mM glucose + 10% FBS, 0.19 µM
[18] = RPMI 5 mM glucose + 10% FBS, 0.569 µM
[19] = RPMI 5 mM glucose + 10% FBS, 1.71 µM
[20] = RPMI 5 mM glucose + 10% FBS, 5.12 µM
[21] = RPMI 5 mM glucose + 10% FBS, 15.4 µM
[22] = RPMI 5 mM glucose + 10% FBS, 46.1 µM
[23] = RPMI 5 mM glucose + 10% dialyzed FBS, 0.000781 µM
[24] = RPMI 5 mM glucose + 10% dialyzed FBS, 0.00234 µM
[25] = RPMI 5 mM glucose + 10% dialyzed FBS, 0.00702 µM
[26] = RPMI 5 mM glucose + 10% dialyzed FBS, 0.0211 µM
[27] = RPMI 5 mM glucose + 10% dialyzed FBS, 0.0632 µM
[28] = RPMI 5 mM glucose + 10% dialyzed FBS, 0.19 µM
[29] = RPMI 5 mM glucose + 10% dialyzed FBS, 0.569 µM
[30] = RPMI 5 mM glucose + 10% dialyzed FBS, 1.71 µM
[31] = RPMI 5 mM glucose + 10% dialyzed FBS, 5.12 µM
[32] = RPMI 5 mM glucose + 10% dialyzed FBS, 15.4 µM
[33] = RPMI 5 mM glucose + 10% dialyzed FBS, 46.1 µM

SMILES	cell viability [1]	cell viability [2]	cell viability [3]	cell viability [4]	cell viability [5]	cell viability [6]	cell viability [7]	cell viability [8]	cell viability [9]	cell viability [10]	cell viability [11]	cell viability [12]	cell viability [13]	cell viability [14]	cell viability [15]	cell viability [16]	cell viability [17]	cell viability [18]	cell viability [19]	cell viability [20]	cell viability [21]	cell viability [22]	cell viability [23]	cell viability [24]	cell viability [25]	cell viability [26]	cell viability [27]	cell viability [28]	cell viability [29]	cell viability [30]	cell viability [31]	cell viability [32]	cell viability [33]
OC(=O)\C1=C\N(C2CC2)C3=CC(=C(F)C=C3C1=O)N4CCNCC4	108%	117%	119%	129%	113%	127%	118%	134%	64.4%	47.5%	22.5%	116%	126%	104%	118%	119%	113%	128%	118%	90%	75.1%	23.5%	112%	132%	119%	116%	120%	122%	117%	123%	88.1%	63.5%	33.9%
Clc2cccc(Cl)c2\N=C1/NCCN1	117%	101%	118%	105%	125%	135%	121%	118%	132%	128%	122%	102%	113%	124%	120%	112%	118%	113%	124%	105%	116%	111%	105%	130%	109%	123%	122%	121%	123%	137%	120%	114%	115%
Cc1cc(Nc2ncc3c(n2)N(C)C(=O)N(c2cc(NC(=O)c4cccc(C(F)(F)F)c4)ccc2C)C3)n(C)n1	90.6%	134%	123%	116%	134%	111%	90.5%	56.7%	32.2%	25.9%	7.8%	99.6%	111%	132%	156%	132%	130%	146%	70.6%	43.8%	29.6%	10.7%	113%	115%	123%	134%	134%	132%	115%	60.2%	38.7%	32.7%	17.7%
Cc1cc(Nc2cc(N3CCN(C)CC3)nc(/C=C/c3ccccc3)n2)n[nH]1	111%	122%	117%	122%	135%	114%	130%	53.7%	14.8%	5.4%	5.88%	106%	98.4%	110%	112%	115%	123%	100%	47.6%	13.3%	4.18%	3.81%	108%	104%	111%	104%	110%	114%	105%	56.3%	24.2%	7.24%	5%
